Source: ChEMBL document CHEMBL2424571, “Synthesis, molecular docking studies, and in vitro screening of barbiturates/thiobarbiturates as antibacterial and cholinesterase inhibitors” (Med Chem Res, 2013)
Converted amounts (≈) assume the structure as drawn. The source made the active and inactive calls. The calls are words filed in the database; no cut-off is given here.

Legend:
Acetylcholinesterase [1] = molecular target: T1, Acetylcholinesterase (Homo sapiens, UniProt P22303); experiment: Inhibition of AChE (unknown origin) using acetyl thiocholine iodide as substrate at 0.125 mM after 30 mins by Ellman's method
T1 sequence (P22303 whole entry): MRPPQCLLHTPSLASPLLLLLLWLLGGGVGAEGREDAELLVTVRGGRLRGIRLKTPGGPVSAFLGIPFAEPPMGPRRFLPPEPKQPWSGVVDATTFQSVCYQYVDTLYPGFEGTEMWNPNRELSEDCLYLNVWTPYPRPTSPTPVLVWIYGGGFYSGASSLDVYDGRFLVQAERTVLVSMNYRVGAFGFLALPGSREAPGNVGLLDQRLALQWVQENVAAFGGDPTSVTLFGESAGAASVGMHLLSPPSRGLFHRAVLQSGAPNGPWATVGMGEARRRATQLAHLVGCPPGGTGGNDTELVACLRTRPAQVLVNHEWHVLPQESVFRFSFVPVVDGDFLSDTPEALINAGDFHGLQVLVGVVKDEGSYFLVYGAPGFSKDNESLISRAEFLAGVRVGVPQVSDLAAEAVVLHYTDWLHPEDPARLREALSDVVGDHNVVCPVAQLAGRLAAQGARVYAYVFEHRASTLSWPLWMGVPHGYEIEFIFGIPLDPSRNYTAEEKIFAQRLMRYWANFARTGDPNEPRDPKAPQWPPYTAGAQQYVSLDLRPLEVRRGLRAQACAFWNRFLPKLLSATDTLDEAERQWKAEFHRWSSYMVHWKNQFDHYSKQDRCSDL

Cholinesterase [2] = molecular target: T2, Cholinesterase (Homo sapiens, UniProt P06276); experiment: Inhibition of BChE (unknown origin) using butyryl thiocholine iodide as substrate after 30 mins by Ellman's method
T2 sequence (P06276 whole entry): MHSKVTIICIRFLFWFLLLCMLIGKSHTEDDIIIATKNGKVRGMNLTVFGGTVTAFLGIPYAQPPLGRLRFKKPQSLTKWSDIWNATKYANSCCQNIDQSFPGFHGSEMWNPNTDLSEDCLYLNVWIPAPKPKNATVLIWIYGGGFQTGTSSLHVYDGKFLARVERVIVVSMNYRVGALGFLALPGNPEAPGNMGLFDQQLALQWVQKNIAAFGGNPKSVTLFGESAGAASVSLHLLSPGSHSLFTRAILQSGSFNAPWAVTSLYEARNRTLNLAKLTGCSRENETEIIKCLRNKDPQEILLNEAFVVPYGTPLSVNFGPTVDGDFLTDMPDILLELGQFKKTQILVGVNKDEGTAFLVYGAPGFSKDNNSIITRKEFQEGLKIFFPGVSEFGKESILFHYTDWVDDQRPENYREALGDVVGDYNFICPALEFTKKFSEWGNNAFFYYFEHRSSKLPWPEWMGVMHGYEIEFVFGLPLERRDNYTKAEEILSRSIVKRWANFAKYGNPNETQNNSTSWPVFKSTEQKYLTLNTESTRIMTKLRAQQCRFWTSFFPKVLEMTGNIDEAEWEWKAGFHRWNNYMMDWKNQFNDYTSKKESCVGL

Cholinesterase [3] = molecular target: T2, Cholinesterase; experiment: Inhibition of BChE (unknown origin) using butyryl thiocholine iodide as substrate at 0.125 mM after 30 mins by Ellman's method
Acetylcholinesterase [4] = molecular target: T1, Acetylcholinesterase; experiment: Inhibition of AChE (unknown origin) using acetyl thiocholine iodide as substrate after 30 mins by Ellman's method
Cholinesterase [5] = molecular target: T2, Cholinesterase; experiment: Inhibition of BChE (unknown origin) using butyryl thiocholine iodide as substrate at 0.5 mM after 30 mins by Ellman's method
Acetylcholinesterase [6] = molecular target: T1, Acetylcholinesterase; experiment: Inhibition of AChE (unknown origin) using acetyl thiocholine iodide as substrate at 0.5 mM after 30 mins by Ellman's method
Cholinesterase [7] = molecular target: T2, Cholinesterase; experiment: Inhibition of BChE (unknown origin) using butyryl thiocholine iodide as substrate at 0.25 mM after 30 mins by Ellman's method
Acetylcholinesterase [8] = molecular target: T1, Acetylcholinesterase; experiment: Inhibition of AChE (unknown origin) using acetyl thiocholine iodide as substrate at 0.25 mM after 30 mins by Ellman's method
Staphylococcus aureus [9] = experiment: Antibacterial activity against Staphylococcus aureus after 18 to 24 hrs by Micro-titer assay; type: functional
Pseudomonas aeruginosa [10] = experiment: Antibacterial activity against Pseudomonas aeruginosa after 18 to 24 hrs by Micro-titer assay; type: functional
Escherichia coli [11] = experiment: Antibacterial activity against Escherichia coli DH5[alpha] after 18 to 24 hrs by Micro-titer assay; type: functional
Staphylococcus aureus [12] = experiment: Antibacterial activity against Staphylococcus aureus at 1 mg/ml after 24 hrs by agar-well diffusion method; type: functional; details: read-out: IZ
Vibrio cholerae = experiment: Antibacterial activity against Vibrio cholerae at 1 mg/ml after 24 hrs by agar-well diffusion method; type: functional, organism-based
Salmonella typhi = experiment: Antibacterial activity against Salmonella typhi at 1 mg/ml after 24 hrs by agar-well diffusion method; type: functional, organism-based; details: Salmonella enterica subsp. enterica serovar Typhi
Pseudomonas aeruginosa [13] = experiment: Antibacterial activity against Pseudomonas aeruginosa at 1 mg/ml after 24 hrs by agar-well diffusion method; type: functional; details: for zone of inhibition at 1000 µg/mL: read-out: IZ
Escherichia coli [14] = experiment: Antibacterial activity against Escherichia coli 5604 at 1 mg/ml after 24 hrs by agar-well diffusion method; type: functional, organism-based
Escherichia coli [15] = experiment: Antibacterial activity against Escherichia coli DG2 at 1 mg/ml after 24 hrs by agar-well diffusion method; type: functional, organism-based
Escherichia coli [16] = experiment: Antibacterial activity against Escherichia coli DH5[alpha] at 1 mg/ml after 24 hrs by agar-well diffusion method; type: functional; details: read-out: IZ

Row | Compound | IC50 (Cholinesterase [2]) | IC50 (Acetylcholinesterase [4]) | inhibition (Cholinesterase [7]) | inhibition (Acetylcholinesterase [8]) | further results
1 | O=C1NC(=O)C(=CNNC(=O)Nc2ccccc2)C(=O)N1 | 38.51 µmol | – | – | – | inhibition (Acetylcholinesterase [1]): 39.6%; inhibition (Cholinesterase [3]): 79.2%
2 | O=C1NC(=O)C(=CNNC(=S)Nc2cccc(C(F)(F)F)c2)C(=O)N1 | 136.91 µmol | 40.78 µmol | – | – | inhibition (Cholinesterase [5]): 75.9%; inhibition (Acetylcholinesterase [6]): 83.3%
3 | O=C(NNC=C1C(=O)NC(=S)NC1=O)Nc1ccccc1 | 3.31 µmol | 74.21 µmol | – | – | inhibition (Acetylcholinesterase [1]): 66.8%; inhibition (Cholinesterase [3]): 85.1%
4 | CNC(=O)Oc1ccc2c(c1)[C@]1(C)CCN(C)[C@@H]1N2C | – | – | 92.5% | 92.5% | –
5 | O=C(N[C@H](CO)[C@H](O)c1ccc([N+](=O)[O-])cc1)C(Cl)Cl [CHLORAMPHENICOL] | – | – | – | – | MIC (Staphylococcus aureus [9]): < 0.78 mg/L; MIC (Pseudomonas aeruginosa [10]): 1.56 mg/L (≈ 4.83 µM); MIC (Escherichia coli [11]): 1.56 mg/L (≈ 4.83 µM); zone of inhibition at 1000 µg/mL (Staphylococcus aureus [12]): 25 mm; inhibition zone (IZ) (Vibrio cholerae): inactive; inhibition zone (IZ) (Salmonella typhi): inactive; zone of inhibition at 1000 µg/mL (Pseudomonas aeruginosa [13]): 25 mm; inhibition zone (IZ) (Escherichia coli [14]): inactive; inhibition zone (IZ) (Escherichia coli [15]): inactive; zone of inhibition at 1000 µg/mL (Escherichia coli [16]): 25 mm
6 | COc1ccc(NC(=S)NNC=C2C(=O)NC(=S)NC2=O)cc1 | 56.81 µmol | 206.31 µmol | 85.4% | 59.1% | –
7 | NC(=S)NNC=C1C(=O)NC(=O)NC1=O | 56.51 µmol | 119.11 µmol | 87.5% | 65.8% | –
8 | N#Cc1ccc(NC(=S)NNC=C2C(=O)NC(=O)NC2=O)cc1 | 231.61 µmol | – | 66.8% | 11.4% | –
9 | CC(=O)NC=C1C(=O)NC(=O)NC1=O | 116.61 µmol | 90.91 µmol | 88.3% | 77.7% | MIC (Staphylococcus aureus [9]): 100 mg/L (≈ 507 µM); MIC (Pseudomonas aeruginosa [10]): 200 mg/L (≈ 1010 µM); MIC (Escherichia coli [11]): 100 mg/L (≈ 507 µM); zone of inhibition at 1000 µg/mL (Staphylococcus aureus [12]): 18 mm; inhibition zone (IZ) (Vibrio cholerae): inactive; inhibition zone (IZ) (Salmonella typhi): inactive; zone of inhibition at 1000 µg/mL (Pseudomonas aeruginosa [13]): 18 mm; inhibition zone (IZ) (Escherichia coli [14]): inactive; inhibition zone (IZ) (Escherichia coli [15]): inactive; zone of inhibition at 1000 µg/mL (Escherichia coli [16]): 15 mm
10 | O=C1NC(=S)NC(=O)C1=CNNC(=S)Nc1ccc(F)cc1 | 57.81 µmol | 78.41 µmol | 88.8% | 86.9% | –
11 | O=C1NC(=S)NC(=O)C1=CNNC(=S)Nc1ccc(Cl)cc1 | 75.41 µmol | 121.11 µmol | 81.6% | 62% | MIC (Staphylococcus aureus [9]): 100 mg/L (≈ 281 µM); MIC (Pseudomonas aeruginosa [10]): 400 mg/L (≈ 1120 µM); MIC (Escherichia coli [11]): 200 mg/L (≈ 562 µM); zone of inhibition at 1000 µg/mL (Staphylococcus aureus [12]): 15 mm; inhibition zone (IZ) (Vibrio cholerae): inactive; inhibition zone (IZ) (Salmonella typhi): inactive; inhibition zone (IZ) (Pseudomonas aeruginosa [13]): inactive; inhibition zone (IZ) (Escherichia coli [14]): inactive; inhibition zone (IZ) (Escherichia coli [15]): inactive; zone of inhibition at 1000 µg/mL (Escherichia coli [16]): 14 mm
12 | Cc1cccc(Cl)c1NC(=S)NNC=C1C(=O)NC(=O)NC1=O | 8.81 µmol | – | – | – | inhibition (Cholinesterase [5]): 75.8%; inhibition (Acetylcholinesterase [6]): 49.4%
13 | O=C1NC(=S)NC(=O)C1=CNNC(=S)Nc1ccc(Br)cc1 | 68.41 µmol | 79.21 µmol | 84.5% | 80.4% | –
14 | O=C1NC(=S)NC(=O)C1=CNNC(=S)Nc1ccc(C(F)(F)F)cc1 | 8.11 µmol | 99.41 µmol | 78.2% | 75.6% | –
15 | O=C1NC(=S)NC(=O)C1=CNNC(=S)Nc1ccccc1 | 57.11 µmol | 115.11 µmol | 83.2% | 73.2% | –
